US5236955A, “Anti-fungal agent” (Washington University, priority 1992, dated 1993)
Where two headings read alike, the source gives them in different places.

Key:
C. neoformans = assay: Viability of C. neoformans (viable cells relative to EtOH control culture); format: cell-based, Cryptococcus neoformans; conditions: for log reduction at 300 µM: Cryptococcus neoformans
Method: Panel A, survey of the effects of several oxatetradecanoic acids on the growth of C. neoformans. A culture of C. neoformans was grown at 30° C. in SAB media to midlog phase (A600 ~0.5). A single dose of fatty acid was then added to subcultures (final concentration=300 μM). EtOH(0.1%) was used as a negative control. Amphotericin B (AmB) was added (final concentraton=55 μM) as a positive control. Aliquots were withdrawn from the subcultures 0, 0.5, 2, 4, 7, 21, and 24 h after these additions and then absorbance at 600 nm was measured. All assays were done in duplicate or triplicate. A representative test is shown. Panel B, survey of the effects of oxatetradecanoic acids, dioxatetradecanoic acids and oxatridecanoic acids on the viability of C. neoformans. Fatty acid analog was added to the cultures as in Panel A. Aliquots were withdrawn 0.5, 2, 4, 7 or 8, and 24 h later and plated on SAB-agar at various dilutions to determine the number of viable organisms/ml culture. All assays were done in duplicate. Data from a representative test are expressed as the ratio of viable cells in treated cultures relative to a control culture that received 0.1% EtOH. A positive control culture received a single dose of amphotericin B (55 μM); Panel C, dose-dependent reduction in the viability of C. neoformans after addition of 4-oxatetradecanoic acid (O4) to cultures during log-phase growth at 30° C. in SAB. A single dose of the analog was given at T=0 h in the amount indicated and aliquots of the culture were withdrawn at various times to determine the number of viable cells. All assays were done in triplicate. A representative test is shown.
(§1) Saccharomyces cerevisiae strain YM2061 (MATa ura3-52 his3Δ200 ade2-101 lys2-801 met LEU2::pRY181 can1; Flick and Johnston, Mol. Cell. Biol. 10, 4757-4769 (1990), Candida albicans strain B311 (obtained from the American Type Tissue Culture, Rockville, Md.), or Cryptococcus neoformans strain L210425 (a clinical isolate that is part of the permanent culture collection of the Mycology Laboratory, Barnes Hospital, St. Louis, Mo.) were grown overnight at 30 C. The S. cerevisiae strain was incubated in YPD medium (1% bacto-yeast extract, Gibco, Long Island, N.Y.), 2% bacto-peptone (Gibco), 2% dextrose). The C. albicans and C. neoformans strains were grown in Sabouraud's media (SAB; 2% (w/v) dextrose, 1% bacto-peptone). The following morning the cultures were diluted into fresh medium to the desired density at 600 nm (early log phase), and subsequently incubated in a rotary shaker at 30° C. until an A600 =0.5 (mid log phase) was achieved. The culture was then divided into 10 ml aliquots. A single 10 μl aliquot of a stock solution of fatty acid analog (prepared in various concentrations using absolute ethanol) was added to the culture so that the final concentration of the compound was 100-500 μM (T=0). Ten microliters of ethanol alone was added to one 10 ml culture which served as the negative control. Amphotericin B (AmB; in the form of Fungizone, Squibb) was added (final concentration=55 μM) to another culture which served as the positive control. At T=0 and 0.5-24 h after addition of fatty acid analog to the subcultures, an aliquot was removed for determining the density of the subculture at 600 nm. Cell viability was determined at each of these time points by (i) serially diluting the aliquot in 0.15M NaCl and counting cell number in a hemocytometer and (ii) plating 2-3 of the dilutions in triplicate onto plates of SAB/agar (C. albicans and C. neoformans) or YPD/agar (S. cerevisiae). These plates were subsequently incubated at 30° C. for 24-48 hr to allow for the growth of colonies. The data were expressed as the ratio of viable cells/ml in the fatty acid analog treated subculture to the number of viable cells/ml in the negative (ethanol) control culture.

C. albicans = assay: Viability of C. albicans; format: cell-based; conditions: Candida albicans
Method: (§2) Oxatetradecanoic acids were added (final concentraton=25-500 μM) as a single dose to log phase cultures of C. alibcans grown in SAB at 30° C. (Panels A and B) and to log phase cultures of S. cerevisiae grown in YPD at 30° C. (Panels C and D). The results were compared to the number of viable organisms present in cultures treated with 0.1% EtOH alone. […] A single does of alphotericin B (final concentration=55 μM) was added to parallel cultures which served as positive controls. Assays were done in duplicate. Representative tests are shown.
as §1

S. cerevisiae = assay: Viability of S. cerevisiae; format: cell-based; conditions: Saccharomyces cerevisiae
Method: as §2, §1

HIV-1 = conditions: acutely infected human T lymphocyte cell line; cited from earlier work

**Q.** What does the source list for `CCCCCCCCCCOCCC(=O)O` [O4, 4-oxatetradecanoic acid]?
**A.** time needed to produce the decrease in viable cells (C. neoformans; 300 μM single dose): ≤ 1 h; fungicidal / fungistatic effect on C. neoformans (C. neoformans; 300 μM single dose, screening assay): fungicidal; log reduction at 300 µM (C. neoformans; 300 μM single dose, relative to 0.1% EtOH control, read-out: decrease in viable cells (converted)): 4; log reduction at 300 µM (C. neoformans; 300 μM, between 1 and 7 h after treatment, read-out: further reductions in viable cell number): < 1; cell number after single dose (C. neoformans; between 8 and 24 hr after single dose): gradual increase in cell number; dose dependence of fungicidal activity (C. neoformans; four doses, 100-300 μM): progressive reduction of viable cell number; log reduction at 300 µM (C. albicans; 300 μM, 2 hr after addition, read-out: reductions in the number of viable C. albicans): < 0.699; log reduction at 500 µM (C. albicans; 500 μM, read-out: reduction in the number of viable organisms (C. albicans)): 1 to 2; log reduction at 300 µM (S. cerevisiae; 300 μM, 2 hr after addition, read-out: reductions in the number of viable S. cerevisiae): < 0.699; log reduction at 500 µM (S. cerevisiae; 500 μM, read-out: reduction in the number of viable organisms (S. cerevisiae)): 1 to 2; HIV-1 replication (HIV-1): inhibits HIV-1 replication
